{"source": "patent US20060264330A1", "about": "“Agricultural agents containing copolymers” (priority 2003, published 2006)", "format_in_all_cases": "in vivo", "key": {"[1]": {"tested_on": "Solanum nigrum L.", "test": "14C-glyphosate foliar uptake by scintillation measurement", "settings": "14C-glyphosate-IPA 20 mM (aq), adjuvant 0.25%", "procedure": "Determination of the foliar uptake of glyphosate with addition of the copolymers described\n^14C-Glyphosate Experiment\n^14C-glyphosate-IPA at a concentration of 20 mM (aq) (corresponds to 665 g of ae/ha at a spray volume of 200 l/ha) was treated with 0.25% of the copolymers described. Using this mixture, the foliar uptake into the genus Solanum nigrum L. was determined by means of scintillation measurement. The effect of the copolymer on the uptake of the active ingredient via the leaf surface (foliar uptake) is described in the table which follows: […]"}, "[2]": {"tested_on": "velvetleaf (ABUTH)", "test": "Nicosulforon experiment, plant fresh weight", "settings": "nicosulforon 200 g of ai/ha, adjuvant 0.25%, 14 DAT; untreated = 100", "procedure": "(§1) Nicosulforon was applied as an aqueous solution with a concentration of 200 g of ai/ha. The adjuvants were added to the application solution at a concentration of 0.25%. The mixture was applied to plants of the genus velvetleaf (ABUTH), common lambsquarter (CHEAL) and common chickweed (STEME). The efficacy was determined by weighing the plant weight (fresh weight in g) 14 days post-application (14 DAT)."}, "[3]": {"tested_on": "common lambsquarter (CHEAL)", "test": "Nicosulforon experiment, plant fresh weight", "settings": "nicosulforon 200 g of ai/ha, adjuvant 0.25%, 14 DAT; untreated = 100", "procedure": "as §1"}, "[4]": {"tested_on": "common chickweed (STEME)", "test": "Nicosulforon experiment, plant fresh weight", "settings": "nicosulforon 200 g of ai/ha, adjuvant 0.25%, 14 DAT; untreated = 100", "procedure": "as §1"}, "[5]": {"tested_on": "common lambsquarters (CHEAL)", "test": "Bentazone experiment, photosynthetic activity by fluorescence measurement (Fpc)", "settings": "sodium salt of bentazone 60 g ai/ha, adjuvant 0.25%, 1 DAT; Fpc drops from 100 to 0 with destruction of the plant", "procedure": "(§2) The sodium salt of bentazone was applied as an aqueous solution with a concentration of 480 g/l. The application rate was 60 g of ai/ha. The mixture was applied to plants of the genus common lambsquarters (CHEAL) and wild buckwheat (POLCO). The adjuvants were added to the application solution at a concentration of 0.25%. The activity was determined by means of fluorescence measurement, where the factor Fpc is a measure of the photosynthetic activity. The destruction of the plant is associated with a drop in the Fpc value, starting from 100, down to 0."}, "[6]": {"tested_on": "wild buckwheat (POLCO)", "test": "Bentazone experiment, photosynthetic activity by fluorescence measurement (Fpc)", "settings": "sodium salt of bentazone 60 g ai/ha, adjuvant 0.25%, 1 DAT; Fpc drops from 100 to 0 with destruction of the plant", "procedure": "as §2"}}, "note": "Where a name gives a salt, the structure may show the parent alone."}
{"compound": "O=C(O)CNCP(=O)(O)O", "note": "[glyphosate, N-phosphonomethylglycine]", "values": [{"measurement": "Uptake (% of the amount of glyphosate applied)", "setting": "[1]", "value": "48 % of the amount of glyphosate applied"}]}
{"compound": "COc1cc(OC)nc(NC(=O)NS(=O)(=O)c2ncccc2C(=O)N(C)C)n1", "note": "[nicosulforon]", "values": [{"measurement": "FW (fresh weight) ABUTH", "setting": "[2]", "value": 90, "unit": "g"}, {"measurement": "FW (fresh weight) CHEAL", "setting": "[3]", "value": 88, "unit": "g"}, {"measurement": "FW (fresh weight) STEME", "setting": "[4]", "value": 63, "unit": "g"}]}
{"compound": "CC(C)N1C(=O)c2ccccc2NS1(=O)=O", "note": "[sodium salt of bentazone]", "values": [{"measurement": "Fluorescence Fpc CHEAL", "setting": "[5]", "value": 56}, {"measurement": "Florescence Fpc POLCO", "setting": "[6]", "value": 46}]}
